Measured values from patent US10342758B2, “Cationic lipid” (Kyowa Hakko Kirin Co., Ltd., priority 2012, dated 2019).

Assay: Average particle diameter of preparation (Zetasizer Nano ZS)
Type: physicochemical
Conditions: preparation with f7 siRNA
Description: The average particle diameter of each preparation (composition) was measured using a particle diameter measurement device (Zetasizer Nano ZS, manufactured by Malvern, hereafter the same).
The average particle diameter of each preparation (composition) was measured using a particle diameter measurement device.
Each sample was weighed and suspended in an aqueous solution containing hydrochloric acid and ethanol so that the ratio of Compound A-1/PEG-DMPE Na (manufactured by NOF Corporation) was 57.3/5.52 mmol/L, and then, the resulting mixture was repeatedly subjected to stirring using a vortex stirring mixer and heating, whereby a uniform suspension was obtained. This suspension was passed through a 0.2-μm polycarbonate membrane filter and thereafter passed through a 0.05-μm polycarbonate membrane filter at room temperature, whereby a dispersion liquid of particles (liposome) of Compound A-1/PEG-DMPE Na was obtained. The average particle diameter of the obtained liposome was measured using a particle diameter measuring apparatus to confirm that the average particle diameter was within the range from 30 nm to 100 nm. In the obtained dispersion liquid of liposome, the f7 siRNA solution was mixed at a ratio of the dispersion liquid of liposome to the fl siRNA solution of 3:1, and then, distilled water that was three times the amount was added thereto and mixed therewith, whereby a dispersion liquid of Compound A-1/PEG-DMPE Na/f7 siRNA complex was prepared.
The average particle diameter of the preparation (composition) was measured using a particle diameter measurement device.

[1] = compound/PEG-DMPE Na/DSPC/cholesterol=7.030/0.755/2.038/4.892 mmol/L, Example 54
[2] = liposome/siRNA complex encapsulated by lipid membrane, Examples 52, 53 / Comparative Example 3
[3] = compound/PEG-DMPE Na/DSPC/cholesterol, Examples 50, 51 / Comparative Example 2

Row | SMILES | Particle diameter of Preparation obtained [1] | Particle diameter of Preparation obtained [2] | Particle diameter of Preparation obtained [3]
1 | CCCCC/C=C\C/C=C\CCCCCCCCN(CCCCCCCC/C=C\C/C=C\CCCCC)C(=O)OCCCN1CCCCC1 [Compound A-7, 3-(Piperidin-1-yl)propyl di((9Z,12Z)-octadeca-9,12-dienyl)carbamate] | 123.3 nm | 94.6 nm | –
2 | CCCCC/C=C\C/C=C\CCCCCCCCN(CCCCCCCCCCCC)C(=O)OCCCN(C)C [Compound A-9, 3-(Dimethylamino)propyl dodecyl((9Z,12Z)-octadeca-9,12-dienyl) carbamate] | – | – | 116.4 nm
3 | CCCCC/C=C\C/C=C\CCCCCCCCN(CCCCCCCC)C(=O)OCCCN(C)C [Compound A-11, 3-(Dimethylamino)propyl ((9Z,12Z)-octadeca-9,12-dienyl)(octyl)carbamate] | – | – | 153.4 nm
4 | CCCCC/C=C\C/C=C\CCCCCCCCOCCN(CCCCCCCC/C=C\C/C=C\CCCCC)C(=O)OCCCN(C)C [Compound A-12, 3-(Dimethylamino)propyl ((9Z,12Z)-octadeca-9,12-dienyl)(2-((9Z,12Z)-octadeca-9,12-dienyloxy)ethyl)carbamate] | – | 111.5 nm | 133.0 nm
5 | CCCCC/C=C\C/C=C\CCCCCCCCN(CCCCCCCC/C=C\C/C=C\CCCCC)C(=O)OCCCCN(C)C [Compound A-13, 4-(Dimethylamino)butyl di((9Z,12Z)-octadeca-9,12-dienyl)carbamate] | – | 103.1 nm | 135.0 nm
6 | CCCCC/C=C\C/C=C\CCCCCCCCN(CCCCCCCC/C=C\C/C=C\CCCCC)C(=O)OCC1CCN(C)CC1 [Compound A-14, (1-Methylpiperidin-4-yl)methyl di((9Z,12Z)-octadeca-9,12-dien-1-yl)carbamate] | – | 99.7 nm | 134.4 nm
7 | CCCCC/C=C\C/C=C\CCCCCCCCN(CCCCCCCC/C=C\C/C=C\CCCCC)C(=O)OCC1CCCN(C)C1 (stereo not shown) [Compound A-15] | – | 98.4 nm | 124.0 nm
8 | CCCCC/C=C\C/C=C\CCCCCCCCN(CCCCCCCC/C=C\C/C=C\CCCCC)C(=O)OCC1CCCCN1C (stereo not shown) [Compound A-16, (1-Methylpiperidin-2-yl)methyl di((9Z,12Z)-octadeca-9,12-dien-1-yl)carbamate] | – | 105.5 nm | 133.4 nm
9 | CCCCCCCC/C=C\CCCCCCCCN(CCCCCCCC/C=C\CCCCCCCC)C(=O)OCCC1CCCN1C (stereo not shown) [Compound A-17, 2-(1-Methylpyrrolidin-2-yl)ethyl di((Z)-octadec-9-enyl)carbamate] | – | 101.4 nm | 129.1 nm
10 | CCCCC/C=C\C/C=C\CCCCCCCCCCN(CCCCCCCCCC/C=C\C/C=C\CCCCC)C(=O)OCC1CCCN(C)C1 (stereo not shown) [Compound A-20, (1-Methylpiperidin-3-yl)methyl di((11Z,14Z)-icosa-11,14-dienyl)carbamate] | – | 95.7 nm | 145.1 nm
11 | CCCCC/C=C\C/C=C\CCCCCCCCN(CCCCCCCC/C=C\C/C=C\CCCCC)C(=O)OCC1CCCN1C (stereo not shown) [Compound A-21, (1-Methylpyrrolidin-2-yl)methyl di((9Z,12Z)-octadeca-9,12-dien-1-yl)carbamate] | – | 104.8 nm | 141.0 nm
12 | CCCCC/C=C\C/C=C\CCCCCCCCOCCN(CCCCCCCC/C=C\C/C=C\CCCCC)C(=O)OCCCN1CCCCC1 [Compound A-29, 3-(Piperidin-1-yl)propyl ((9Z,12Z)-octadeca-9,12-dienyl)(2-((9Z,12Z)-octadeca-9,12-dienyloxy)ethyl)carbamate] | – | 103.4 nm | 130.6 nm
13 | CCCCC/C=C\C/C=C\CCCCCCCCOCCN(CCCCCCCC/C=C\C/C=C\CCCCC)C(=O)OCC1CCCN(C)C1 (stereo not shown) [Compound A-32, (1-Methylpiperidin-3-yl)methyl ((9Z,12Z)-octadeca-9,12-dienyl)(2-((Z,12Z)-octadeca-9,12-dienyloxy)ethyl)carbamate] | – | 101.4 nm | 124.6 nm
14 | CCCCC/C=C\C/C=C\CCCCCCCCN(CCOCCCCCCCC/C=C\CCCCCCCC)C(=O)OCCC1CCCN1C (stereo not shown) [Compound A-34, 2-(1-Methylpyrrolidin-2-yl)ethyl (2-((Z)-octadec-9-enyloxy)ethyl)((9Z,12Z)-octadeca-9,12-dienyl)carbamate] | – | 92.6 nm | 140.2 nm
15 | CCCCC/C=C\C/C=C\CCCCCCCCN(CCCO)CCCCCCCC/C=C\C/C=C\CCCCC [Compound C-1, 3-(Di((9Z,12Z)-octadeca-9,12-dienyl)amino)propan-1-ol] | – | 88.3 nm | 124.3 nm
16 | CCCCC/C=C\C/C=C\CCCCCCCCCCN(CCCO)CCCCCCCCCC/C=C\C/C=C\CCCCC [Compound C-3, 3-(Di((11Z,14Z)-icosa-11,14-dienyl)amino)propan-1-ol] | – | 94.1 nm | 138.4 nm

More lines, now with the values ahead:

Row | Particle diameter of Preparation obtained [1] | Particle diameter of Preparation obtained [2] | Particle diameter of Preparation obtained [3] | SMILES
17 | 113.0 nm | 95.9 nm | – | CCCCC/C=C\C/C=C\CCCCCCCCN(CCCCCCCC/C=C\C/C=C\CCCCC)C(=O)OCCCN(C)C [Compound A-1, 3-(Dimethylamino) propyl di((9Z,12Z)-octadeca-9,12-dienyl)carbamate]
18 | – | 93.4 nm | 139.2 nm | CCCCC/C=C\C/C=C\CCCCCCCCN(CCCCCCCC/C=C\C/C=C\CCCCC)C(=O)OCCN(C)C [Compound A-5, 2-(Dimethylamino)ethyl di((9Z,12Z)-octadeca-9,12-dienyl)carbamate]
19 | – | 93.6 nm | – | CCCCC/C=C\C/C=C\CCCCCCCCN(CCCCCCCC/C=C\C/C=C\CCCCC)C(=O)OCCC1CCCN1C (stereo not shown) [Compound A-6, 2-(1-Methylpyrrolidin-2-yl)ethyl di((9Z,12Z)-octadeca-9,12-dienyl)carbamate]
20 | 156.2 nm | 123.1 nm | 148.7 nm | CCCCC/C=C\C/C=C\CCCCCCCCN(CCCCCCCCCC)C(=O)OCCCN(C)C [Compound A-10, 3-(Dimethylamino)propyl decyl((9Z,12Z)-octadeca-9,12-dienyl)carbamate]
21 | – | 112.0 nm | 138.4 nm | CCCCCCCC/C=C\CCCCCCCCN(CCCCCCCC/C=C\CCCCCCCC)C(=O)OCC1CCCN(C)C1 (stereo not shown) [Compound A-18, (1-Methylpiperidin-3-yl)methyl di((Z)-octadec-9-enyl)carbamate]
22 | – | 91.4 nm | 140.0 nm | CCCCC/C=C\C/C=C\CCCCCCCCCCN(CCCCCCCCCC/C=C\C/C=C\CCCCC)C(=O)OCCC1CCCN1C (stereo not shown) [Compound A-19, 2-(1-Methylpyrrolidin-2-yl)ethyl di((11Z,14Z)-icosa-11,14-dienyl)carbamate]
23 | – | 111.3 nm | 132.0 nm | CCCCC/C=C\C/C=C\CCCCCCCCN(CCCCCCCC/C=C\C/C=C\CCCCC)C(=O)OCCCN1CCCCCCC1 [Compound A-28]
24 | – | 106.2 nm | 130.4 nm | CCCCC/C=C\C/C=C\CCCCCCCCOCCN(CCCCCCCC/C=C\C/C=C\CCCCC)C(=O)OCCC1CCCN1C (stereo not shown) [Compound A-30]
25 | – | 102.2 nm | 139.1 nm | CCCCC/C=C\C/C=C\CCCCCCCCOCCN(CCCCCCCC/C=C\C/C=C\CCCCC)C(=O)OCCCN1CCCCCC1 [Compound A-31, 3-(Azepan-1-yl)propyl ((9Z,12Z)-octadeca-9,12-dienyl) (2-((9Z,12Z)-octadeca-9,12-dienyloxy)ethyl)carbamate]
26 | – | 115.4 nm | 137.8 nm | CCCCC/C=C\C/C=C\CCCCCCCCN(CCOCCCCCCCC/C=C\CCCCCCCC)C(=O)OCCCN(C)C [Compound A-35, 3-(Dimethylamino)propyl (2-((Z)-octadec-9-enyloxy)ethyl)((9Z,12Z)-octadeca-9,12-dienyl)carbamate]
27 | – | 127.2 nm | 126.5 nm | CCCCC/C=C\C/C=C\CCCCCCCCN(CCOCCCCCCCC/C=C\CCCCCC)C(=O)OCCCN(C)C [Compound A-36, 3-(Dimethylamino)propyl (2-((Z)-hexadec-9-enyloxy)ethyl)((9Z,12Z)-octadeca-9,12-dienyl)carbamate]
28 | – | – | 160.6 nm | CCCCC/C=C\C/C=C\CCCCCCCCNCCCCCCCC/C=C\C/C=C\CCCCC [Compound B-1, Di((9Z,12Z)-octadeca-9,12-dienyl)amine]
29 | – | 91.9 nm | 125.4 nm | CCCCCCCC/C=C\CCCCCCCCN(CCCO)CCCCCCCC/C=C\CCCCCCCC [Compound C-2, 3-(Di((Z)-octadec-9-enyl)amino)propan-1-ol]
